pIC50: −log10 of the molar value.
What was measured:
Format in all cases: biochemical
[1] = target: adenosine A2B receptor (Homo sapiens (Human), UniProt P29275); assay: Adenosine receptor activity assay (Table 1), A2B activity; conditions: for Ratio: A2A activity to the A2B activity, A2A/A2B; for pIC50: read-out: Ave A2B cAMP IC50
[2] = target: adenosine A2A receptor (Homo sapiens (Human), UniProt P29274); assay: Adenosine receptor activity assay (Table 1), A2A activity; conditions: read-out: Ave A2A cAMP IC50
[3] = target: adenosine A1 receptor (Homo sapiens (Human), UniProt P30542); assay: Adenosine receptor activity assay (Table 1), A1 cAMP
Experimental: (§1) Table 1. Compounds (e.g., Adenosine Receptor modulators) and activity assay results. The legend is as follows: A=<10 nM; B=10-50 nM; C=50-100 nM; D=100-500; and E=>500 nM. The ratio corresponds to the A2A activity to the A2B activity; or A2A/A2B.

[4] = target: adenosine A3 receptor (Homo sapiens (Human), UniProt P0DMS8); assay: Adenosine receptor activity assay (Table 1), A3 cAMP
Experimental: as §1

Chain of adenosine A3 receptor (P0DMS8 whole entry): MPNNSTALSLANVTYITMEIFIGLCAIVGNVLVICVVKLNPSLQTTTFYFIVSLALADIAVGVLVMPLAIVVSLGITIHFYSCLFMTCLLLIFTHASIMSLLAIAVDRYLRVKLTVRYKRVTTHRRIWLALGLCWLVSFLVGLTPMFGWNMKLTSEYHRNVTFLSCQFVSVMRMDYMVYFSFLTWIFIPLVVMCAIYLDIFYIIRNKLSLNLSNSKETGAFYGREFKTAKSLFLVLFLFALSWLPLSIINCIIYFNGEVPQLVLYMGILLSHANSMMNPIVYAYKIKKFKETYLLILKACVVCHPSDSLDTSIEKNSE
Chain of adenosine A2A receptor (P29274 whole entry): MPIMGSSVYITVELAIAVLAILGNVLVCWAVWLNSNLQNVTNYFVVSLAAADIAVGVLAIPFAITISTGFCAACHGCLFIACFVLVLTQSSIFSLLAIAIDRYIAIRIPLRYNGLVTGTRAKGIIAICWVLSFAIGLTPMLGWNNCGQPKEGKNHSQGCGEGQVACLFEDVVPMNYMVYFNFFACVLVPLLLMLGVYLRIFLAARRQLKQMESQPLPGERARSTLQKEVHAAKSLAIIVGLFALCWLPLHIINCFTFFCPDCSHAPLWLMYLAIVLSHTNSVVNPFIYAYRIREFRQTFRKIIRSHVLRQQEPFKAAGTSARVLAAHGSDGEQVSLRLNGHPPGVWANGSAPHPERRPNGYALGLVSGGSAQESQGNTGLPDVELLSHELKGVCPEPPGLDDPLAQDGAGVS
Chain of adenosine A1 receptor (P30542 whole entry): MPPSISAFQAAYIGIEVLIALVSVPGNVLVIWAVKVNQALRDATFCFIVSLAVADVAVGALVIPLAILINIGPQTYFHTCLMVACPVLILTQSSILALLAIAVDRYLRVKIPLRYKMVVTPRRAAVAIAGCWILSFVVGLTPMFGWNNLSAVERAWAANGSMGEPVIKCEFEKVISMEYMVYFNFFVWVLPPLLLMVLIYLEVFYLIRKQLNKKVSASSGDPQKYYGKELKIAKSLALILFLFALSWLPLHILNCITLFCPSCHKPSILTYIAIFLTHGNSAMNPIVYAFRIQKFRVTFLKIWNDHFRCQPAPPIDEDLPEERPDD
Chain of adenosine A2B receptor (P29275 whole entry): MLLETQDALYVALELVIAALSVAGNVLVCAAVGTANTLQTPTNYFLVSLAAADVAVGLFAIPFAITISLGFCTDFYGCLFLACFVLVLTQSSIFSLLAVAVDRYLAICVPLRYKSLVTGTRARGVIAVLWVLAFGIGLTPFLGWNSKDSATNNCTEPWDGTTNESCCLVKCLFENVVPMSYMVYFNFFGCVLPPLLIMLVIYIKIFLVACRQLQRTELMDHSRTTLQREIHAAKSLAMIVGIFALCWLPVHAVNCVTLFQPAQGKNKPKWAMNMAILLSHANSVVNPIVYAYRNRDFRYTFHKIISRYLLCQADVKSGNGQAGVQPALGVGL

Compound | Ratio [1] | pIC50 [1] | pIC50 [2] | pIC50 [3] | pIC50 [4]
COC[C@@H]1CCN(C(=O)c2nc(N[C@@H](C)c3ccccn3)nc3cc(C)sc23)C1 [Example Z467, ((R)-3-(Methoxymethyl)pyrrolidin-1-yl)(6-methyl-2-(((S)-1-(pyridin-2-yl)ethyl)amino)thieno[3,2-d]pyrimidin-4-yl)methanone] | 4.90 | 7.30 to 8.00 | 6.30 to 7.00 | < 6.30 | 7.00 to 7.30
COC[C@H]1CCN(C(=O)c2nc(N[C@@H](C)c3ccccn3)nc3cc(C)sc23)C1 [Example Z468, ((S)-3-(Methoxymethyl)pyrrolidin-1-yl)(6-methyl-2-(((S)-1-(pyridin-2-yl)ethyl)amino)thieno[3,2-d]pyrimidin-4-yl)methanone] | 24.67 | 7.30 to 8.00 | < 6.30 | < 6.30 | < 6.30
COc1ccc(CNC(=O)c2nc(N[C@@H](C)c3ccccn3)nc3cc(C)sc23)cn1 [Example Z469, (S)—N-((6-Methoxypyridin-3-yl)methyl)-6-methyl-2-((1-(pyridin-2-yl)ethyl)amino)thieno[3,2-d]pyrimidine-4-carboxamide] | 36.71 | 7.30 to 8.00 | < 6.30 | < 6.30 | < 6.30
Cc1cc2nc(N[C@@H](C)c3cncc(F)c3)nc(C(=O)N3CC[C@H](NC(=O)OCc4ccccc4)C3)c2s1 [Example Z473, Benzyl ((S)-1-(2-(((S)-1-(5-fluoropyridin-3-yl)ethyl)amino)-6-methylthieno[3,2-d]pyrimidine-4-carbonyl)pyrrolidin-3-yl)carbamate] | 20.60 | 7.30 to 8.00 | < 6.30 | < 6.30 | < 6.30
Cc1cc2nc(N[C@@H](C)c3cncc(F)c3)nc(C(=O)N3CC(CNC(=O)OC(C)(C)C)C3)c2s1 [Example Z475, tert-Butyl (S)-((1-(2-((1-(5-fluoropyridin-3-yl)ethyl)amino)-6-methylthieno[3,2-d]pyrimidine-4-carbonyl)azetidin-3-yl)methyl)carbamate] | 7.45 | 7.30 to 8.00 | 6.30 to 7.00 | < 6.30 | < 6.30
Cc1cc2nc(N[C@@H](C)c3ccccn3)nc(C(=O)N3CC(CNC(=O)OC(C)(C)C)C3)c2s1 [Example Z476, tert-Butyl (S)-((1-(6-methyl-2-((1-(pyridin-2-yl)ethyl)amino)thieno[3,2-d]pyrimidine-4-carbonyl)azetidin-3-yl)methyl)carbamate] | 5.27 | 7.30 to 8.00 | 6.30 to 7.00 | < 6.30 | < 6.30
COc1ccc(CNC(=O)c2nc(N[C@@H](C)c3ccccn3)nc3cc(C)sc23)cc1 [Example Z477, (S)—N-(4-Methoxybenzyl)-6-methyl-2-((1-(pyridin-2-yl)ethyl)amino)thieno[3,2-d]pyrimidine-4-carboxamide] | 9.73 | 7.30 to 8.00 | 6.30 to 7.00 | 7.00 to 7.30 | 7.00 to 7.30
Cc1cc2nc(N[C@@H](C)c3cncc(F)c3)nc(C(=O)N3CC(CN)C3)c2s1 [Example Z478, (S)-(3-(Aminomethyl)azetidin-1-yl)(2-((1-(5-fluoropyridin-3-yl)ethyl)amino)-6-methylthieno[3,2-d]pyrimidin-4-yl)methanone] | 167.42 | 7.30 to 8.00 | < 6.30 | < 6.30 | < 6.30
Cc1cc2nc(N[C@@H](C)c3ccccn3)nc(C(=O)N3CC(CN)C3)c2s1 [Example Z479, (S)-(3-(Aminomethyl)azetidin-1-yl)(6-methyl-2-((1-(pyridin-2-yl)ethyl)amino)thieno[3,2-d]pyrimidin-4-yl)methanone] | 96.36 | 7.30 to 8.00 | < 6.30 | < 6.30 | < 6.30
